Assay results published in patent US9056099B2, “Compositions and methods for treating viral diseases” (NovaDrug, LLC, priority 2010, dated 2015).

What follows are molecules tested on HCV (JFH-1) in Huh7-1 cells (assay: Assay for anti-HCV efficacy: JFH-1 HCV infection of Huh7-1 cultures, intracellular HCV RNA by RT-qPCR). Conditions: Compound Example 1 series; % viral titer at 5 μM or 15 μM; HCV-infected Huh7-1 cultures.
Type: cell-based, Hepatitis C virus
Text: In the past, HCV studies involved mainly infected patients and chimpanzees. Recently, a robust HCV infection system was developed with cells derived from the Huh-7 human hepatoma cell line (see, for example, Yu et al., “Development of a cell-based hepatitis C virus infection fluorescent resonance energy transfer assay for high-throughput antiviral compound screening” Antimicrob Agents Chemother. 2009 53:4311-4319 for additional details regarding growing virus stocks, maintenance of the Huh-7 cells, infection parameters, and HCV titers determinations; and Yu & Uprichard “Cell-based hepatitis C virus infection fluorescence resonance energy transfer (FRET) assay for antiviral compound screening” Curr Protoc Microbiol. 2010; Chapter 17: Unit 17.5). Briefly, the assay is based on the unique JFH-1 HCV consensus cDNA derived from an HCV patient. Using reverse genetics, the infectious virus can be rescued from this HCV clone. The recovered viable JFH virus can be passaged serially in Huh-7 cells. For this reason, this system is amenable for testing the activity of potential drugs for their anti-HCV efficacy. The antiviral activity of the compounds described herein is tested in this system.
Initially, 6×10^3 Huh7-1 cells are incubated overnight in each well of collagen-coated BioCoat 96-well plates (BD Biosciences, Bedford, Mass.) in 0.2 mL 10% Medium composed of Dulbecco's modified Eagle's medium supplemented with 10% fetal bovine serum. Subsequently, at 2 day intervals, the cultures are replenished with fresh 0.2 mL 10% Medium. Once the cultures become confluent, they are continually replenished at 2 day intervals with fresh 0.2 mL 10% Medium that also includes 1% dimethyl sulfoxide (DMSO). After 20 days of these replenishments, the Huh7-1 cultures are incubated with fresh 1% Medium (same as 10% Medium except that the serum level is 1%) containing HCV at a multiplicity of infection (MOI) of 0.05 focus forming units (ffu)/cell. The HCV (JFH-1wt Huh7) stock titer is 1.5×10^5 ffu/mL. The next day (day 1 post-infection) and 2 days later (day 3 post-infection) the media are replenished with fresh 1% Medium containing the test compounds dissolved in DMSO. On the 5th day of treatment with the compounds, cell lysates are collected for RNA isolation and Real Time-quantitative Reverse Transcription Polymerase Chain Reaction (RT-qPCR) and culture media are collected for cytotoxicity analysis.
Total RNA is isolated from cells by the guanidine thiocyanate method using standard protocols. One μg RNA is used for cDNA synthesis using TaqMan reverse transcription reagents (Applied Biosystems, Foster City, Calif.) followed by real-time PCR using an Applied Biosystems 7300 real-time thermocycler. Illustrative thermal cycling consists of initial denaturation of 10 min at 95° C. followed by 40 cycles of denaturation (15 s at 95° C.) and annealing/extension (1 m at 60° C.). HCV and human glyceraldehyde-3-phosphate dehydrogenase (GAPDH) RNA levels are determined relative to a standard curve of serial dilutions of plasmid containing JFH-1 HCV or GAPDH cDNA. The PCR primers used to detect GAPDH and HCV are illustratively: GAPDH (NMX002046) 5′-GAAGGTGAAGGTCGGAGTC-3′ (SEQ ID NO: 5) (sense) and 5′-[…]-3′ (SEQ ID NO: 6) (anti-sense) JFH-1 HCV (AB047639) 5′-TCTGCGGAACCGGTGAGTA-3′ (SEQ ID NO: 7) (sense) and 5′-TCAGGCAGTACCACAAGGC-3′ (SEQ ID NO: 8) (anti-sense).
FIGS. 1-7 illustrate the intracellular HCV RNA levels when cultures are incubated with the selected test compounds at the doses shown. When HCV RNA levels are compared among the samples, the data may indicate that the compounds cause a dose dependent decrease in HCV RNA levels relative to the mock-treated (no compound added) HCV infected control.
In the case of COc1ccc(CN2CCC3C(C2)C(c2ccc(F)cc2)CN3C(=O)c2ccccn2)cc1 (centres unmarked), the “Activity (viral titer)” value is reported as “− (>60% viral titer at 15 μM (highest concentration tested))”.
With COc1cccc([C@H]2CN(C(=O)c3ccccc3)[C@@H]3CCN(Cc4cccs4)C[C@H]23)c1 the “Activity (viral titer)” value was “− (>60% viral titer at 15 μM (highest concentration tested))”.
With O=C(c1ccccc1)N1C[C@H](c2ccc(F)cc2)[C@H]2CN(Cc3ccc(F)cc3)CC[C@H]21 the “Activity (viral titer)” value was “+++ (≦30% viral titer at 5 μM)”.
In the case of O=C(c1ccccc1F)N1C[C@H](c2ccsc2)[C@H]2CN(Cc3ccc(F)cc3)CC[C@H]21, the “Activity (viral titer)” value is reported as “+++ (≦30% viral titer at 5 μM)”.
For COc1cccc(CN2CCC3C(C2)C(c2ccc(F)cc2)CN3C(=O)c2ccccn2)c1 (centres unmarked), the “Activity (viral titer)” value was “− (>60% viral titer at 15 μM (highest concentration tested))”.
For O=C(c1ccccc1F)N1C[C@H](c2ccsc2)[C@H]2CN(Cc3cccc(F)c3)CC[C@H]21, the “Activity (viral titer)” value was “++ (≦60% viral titer at 5 μM)”.
For O=C(c1cccs1)N1C[C@H](c2ccc(F)cc2)[C@H]2CN(Cc3ccccn3)CC[C@H]21, the “Activity (viral titer)” value was “− (>60% viral titer at 15 μM (highest concentration tested))”.
In the case of COc1cccc(C2CN(C(=O)c3ccccc3)C3CCN(Cc4ccc(C)cc4)CC23)c1 (centres unmarked), the “Activity (viral titer)” value is reported as “+ (≦60% viral titer at 15 μM)”.
In the case of O=C(c1ccccc1F)N1C[C@H](c2ccsc2)[C@H]2CN(Cc3cccnc3)CC[C@H]21, the “Activity (viral titer)” value is reported as “− (>60% viral titer at 15 μM (highest concentration tested))”.
In the case of O=C(c1ccccn1)N1CC(c2ccc(F)cc2)C2CN(Cc3ccc(Cl)cc3)CCC21 (centres unmarked), the “Activity (viral titer)” value is reported as “− (>60% viral titer at 15 μM (highest concentration tested))”.
With O=C(c1ccccc1F)N1CC(c2ccsc2)C2CN(Cc3ccncc3)CCC21 (centres unmarked) the “Activity (viral titer)” value was “− (>60% viral titer at 15 μM (highest concentration tested))”.
For O=C(c1cccnc1)N1CC(c2ccc(F)cc2)C2CN(Cc3ccccc3Cl)CCC21 (centres unmarked), the “Activity (viral titer)” value was “− (>60% viral titer at 15 μM (highest concentration tested))”.
For COc1cccc([C@H]2CN(C(=O)c3ccccc3)[C@@H]3CCN(Cc4ccccc4)C[C@H]23)c1, the “Activity (viral titer)” value was “− (>60% viral titer at 15 μM (highest concentration tested))”.
With COc1cccc([C@H]2CN(C(=O)c3ccccc3)[C@@H]3CCN(Cc4ccncc4)C[C@H]23)c1 the “Activity (viral titer)” value was “− (>60% viral titer at 15 μM (highest concentration tested))”.
In the case of O=C(c1ccccc1F)N1CC(c2ccsc2)C2CN(Cc3ccccc3)CCC21 (centres unmarked), the “Activity (viral titer)” value is reported as “− (>60% viral titer at 15 μM (highest concentration tested))”.
With O=C(c1cccs1)N1C[C@H](c2ccc(F)cc2)[C@H]2CN(Cc3ccccc3)CC[C@H]21 the “Activity (viral titer)” value was “− (>60% viral titer at 15 μM (highest concentration tested))”.
With Cc1ccc(CN2CC[C@@H]3[C@H](C2)[C@@H](c2ccsc2)CN3C(=O)c2ccccc2F)cc1 the “Activity (viral titer)” value was “− (>60% viral titer at 15 μM (highest concentration tested))”.
In the case of Cc1cccc(CN2CCC3C(C2)C(c2ccc(F)cc2)CN3C(=O)c2ccccn2)c1 (centres unmarked), the “Activity (viral titer)” value is reported as “− (>60% viral titer at 15 μM (highest concentration tested))”.
O=C(c1ccncc1)N1CC(c2ccsc2)C2CN(Cc3cccs3)CCC21 (centres unmarked) was tested, and the “Activity (viral titer)” value was “− (>60% viral titer at 15 μM (highest concentration tested))”.
In the case of COc1cccc(CN2CCC3C(C2)C(c2ccc(F)cc2)CN3C(=O)c2ccccc2)c1 (centres unmarked), the “Activity (viral titer)” value is reported as “+++ (≦30% viral titer at 5 μM)”.
With O=C(c1cccnc1)N1CC(c2ccc(F)cc2)C2CN(Cc3ccc(F)cc3)CCC21 (centres unmarked) the “Activity (viral titer)” value was “− (>60% viral titer at 15 μM (highest concentration tested))”.
With COc1cccc(C2CN(C(=O)c3ccccc3)C3CCN(Cc4ccsc4)CC23)c1 (centres unmarked) the “Activity (viral titer)” value was “++ (≦60% viral titer at 5 μM)”.
With O=C(c1cccnc1)N1C[C@H](c2ccc(F)cc2)[C@H]2CN(Cc3ccncc3)CC[C@H]21 the “Activity (viral titer)” value was “− (>60% viral titer at 15 μM (highest concentration tested))”.
With O=C(c1cccnc1)N1C[C@H](c2ccc(F)cc2)[C@H]2CN(Cc3ccc(Cl)cc3)CC[C@H]21 the “Activity (viral titer)” value was “+++ (≦30% viral titer at 5 μM)”.
With O=C(c1ccccc1F)N1CC(c2ccsc2)C2CN(Cc3ccccc3F)CCC21 (centres unmarked) the “Activity (viral titer)” value was “− (>60% viral titer at 15 μM (highest concentration tested))”.

Same assay, conditions: Compound Example 2 series; % viral titer at 5 μM or 15 μM; HCV-infected Huh7-1 cultures
In the case of O=C(c1ccncc1)N1CC(c2ccc(F)cc2)C2CN(Cc3ccccc3F)CCC21 (centres unmarked), the “Activity (viral titer)” value is reported as “− (>60% viral titer at 15 μM (highest concentration tested))”.
With O=C(c1ccc(F)cc1)N1C[C@@H](c2ccsc2)[C@@H]2CN(Cc3cccc(F)c3)CC[C@@H]21 the “Activity (viral titer)” value was “− (>60% viral titer at 15 μM (highest concentration tested))”.
With Cc1ccccc1CN1CC[C@H]2[C@@H](C1)[C@H](c1ccsc1)CN2C(=O)c1ccncc1 the “Activity (viral titer)” value was “− (>60% viral titer at 15 μM (highest concentration tested))”.
For O=C(c1ccccc1)N1CC(c2ccsc2)C2CN(Cc3cccnc3)CCC21 (centres unmarked), the “Activity (viral titer)” value was “− (>60% viral titer at 15 μM (highest concentration tested))”.
With O=C(c1ccccc1)N1CC(c2ccsc2)C2CN(Cc3ccc(F)c(F)c3)CCC21 (centres unmarked) the “Activity (viral titer)” value was “++ (≦60% viral titer at 5 μM)”.
With Cc1nn(C)cc1CN1CC[C@H]2[C@@H](C1)[C@H](c1ccc(F)cc1)CN2C(=O)c1cccnc1 the “Activity (viral titer)” value was “− (>60% viral titer at 15 μM (highest concentration tested))”.
With COc1ccc(C2CN(C(=O)c3ccccc3)C3CCN(Cc4ccc(F)cc4)CC23)cc1 (centres unmarked) the “Activity (viral titer)” value was “+++ (≦30% viral titer at 5 μM)”.
O=C(c1ccncc1)N1C[C@@H](c2ccsc2)[C@@H]2CN(Cc3ccccc3Cl)CC[C@@H]21 was tested, and the “Activity (viral titer)” value was “− (>60% viral titer at 15 μM (highest concentration tested))”.
In the case of O=C(c1ccc(F)cc1)N1CC(c2ccsc2)C2CN(Cc3ccccn3)CCC21 (centres unmarked), the “Activity (viral titer)” value is reported as “− (>60% viral titer at 15 μM (highest concentration tested))”.
In the case of O=C(c1ccccc1)N1C[C@@H](c2ccsc2)[C@@H]2CN(Cc3ccc(F)cc3)CC[C@@H]21, the “Activity (viral titer)” value is reported as “++ (≦60% viral titer at 5 μM)”.
For COc1ccc(CN2CC[C@H]3[C@@H](C2)[C@H](c2ccsc2)CN3C(=O)c2ccncc2)cc1, the “Activity (viral titer)” value was “− (>60% viral titer at 15 μM (highest concentration tested))”.
With O=C(c1ccncc1)N1CC(c2ccc(F)cc2)C2CN(Cc3ccccc3)CCC21 (centres unmarked) the “Activity (viral titer)” value was “− (>60% viral titer at 15 μM (highest concentration tested))”.
For O=C(c1ccncc1)N1CC(c2ccsc2)C2CN(Cc3ccc(F)cc3)CCC21 (centres unmarked), the “Activity (viral titer)” value was “+ (≦60% viral titer at 15 μM)”.
With O=C(c1cccnc1)N1CC(c2ccc(F)cc2)C2CN(Cc3cccc(F)c3)CCC21 (centres unmarked) the “Activity (viral titer)” value was “− (>60% viral titer at 15 μM (highest concentration tested))”.
In the case of O=C(c1ccncc1)N1C[C@@H](c2ccsc2)[C@@H]2CN(Cc3cccc(F)c3F)CC[C@@H]21, the “Activity (viral titer)” value is reported as “− (>60% viral titer at 15 μM (highest concentration tested))”.
For O=C(c1ccncc1)N1C[C@@H](c2ccc(F)cc2)[C@@H]2CN(Cc3ccccn3)CC[C@@H]21, the “Activity (viral titer)” value was “− (>60% viral titer at 15 μM (highest concentration tested))”.
With Cc1ccc(CN2CCC3C(C2)C(c2ccsc2)CN3C(=O)c2ccncc2)cc1 (centres unmarked) the “Activity (viral titer)” value was “− (>60% viral titer at 15 μM (highest concentration tested))”.
In the case of O=C(c1ccc(F)cc1)N1CC(c2ccsc2)C2CN(Cc3ccccc3F)CCC21 (centres unmarked), the “Activity (viral titer)” value is reported as “− (>60% viral titer at 15 μM (highest concentration tested))”.
O=C(c1ccccc1)N1C[C@@H](c2ccsc2)[C@@H]2CN(Cc3ccccc3Cl)CC[C@@H]21 was tested, and the “Activity (viral titer)” value was “− (>60% viral titer at 15 μM (highest concentration tested))”.
O=C(c1ccncc1)N1CC(c2ccc(F)cc2)C2CN(Cc3ccncc3)CCC21 (centres unmarked) was tested, and the “Activity (viral titer)” value was “− (>60% viral titer at 15 μM (highest concentration tested))”.
In the case of O=C(c1ccccc1)N1C[C@@H](c2ccsc2)[C@@H]2CN(Cc3cccc(F)c3)CC[C@@H]21, the “Activity (viral titer)” value is reported as “− (>60% viral titer at 15 μM (highest concentration tested))”.
With COc1cccc(CN2CC[C@H]3[C@@H](C2)[C@H](c2ccsc2)CN3C(=O)c2ccncc2)c1 the “Activity (viral titer)” value was “− (>60% viral titer at 15 μM (highest concentration tested))”.
